Assay results taken from patent US20090258877A1, “TRIAZOLOTRIAZINES AND TRIAZOLOPYRAZINES AND THEIR USE” (BAYER HEALTHCARE AG, priority 2007, published 2009).

target: T1, GSK3β (Homo sapiens, UniProt P49841); experiment: GSK3β biochemical in vitro assay (coupled pyruvate kinase/lactate dehydrogenase, NADH fluorescence); conditions: 5 nM GSK3β, 50 μM ATP, 40 μM GSM substrate, 30° C., 2 hours
T1 construct: purchased Upstate 14-306
Description: The inhibitory activity of active substances is determined in a biochemical assay. The ingredients required for this purpose are mixed in a black 384-well microtitre plate with transparent base (from Greiner, catalogue number 781092). The requirements in this connection for each well of the 384-well microtitre plate are 5 nM GSK3β (from Upstate, catalogue number 14-306), 40 μM GSK3β substrate GSM (sequence H-RRRPASVPPSPSLSRHS-(pS)-HQRR, from Upstate, catalogue number 2-533), 30 μM nicotinamide adenine dinucleotide NADH (Roche Diagnostics, catalogue number 10107735), 50 μM adenosine triphosphate ATP (from Sigma, catalogue number A7966), 2 mM phosphoenolpyruvate (from Roche, catalogue number 128112), and also about 1 U/ml of pyruvate kinase and about 1 U/ml of lactate dehydrogenase, which are present together in a stock formulation (from Roche, catalogue number 10737291001, suspension with about 450 U/ml of pyruvate kinase activity, about 450 U/ml of lactate dehydrogenase activity in […] ammonium sulphate solution pH 6), where 1 unit pyruvate kinase converts, at pH 7.6 and 37° C., 1 μmol of phosphoenolpyruvate into pyruvate per minute, and where 1 unit of lactate dehydrogenase reduces, at pH 7.5 and 37° C., 1 μmol of pyruvate to lactate per minute. The required reaction buffer in which the biochemical reaction takes place consists of 50 mM Trizma hydrochloride Tris-HCl pH: 7.5 (from Sigma, catalogue number T3253), 5 mM magnesium chloride MgCl2 (from Sigma, catalogue number M8266), 0.2 mM DL-dithiothreitol DTT (from Sigma, catalogue number D9779), 2 mM ethylenediaminetetraacetic acid EDTA (from Sigma, catalogue number E6758), 0.01% Triton X-100 (from Sigma, catalogue number T8787) and 0.05% bovine serum albumin BSA (from Sigma, catalogue number B4287).
Active substances are dissolved in dimethyl sulphoxide DMSO (from Sigma, catalogue number D8418) in a concentration of 10 mM. Active substances are added in serial concentrations of 10 μM, 1 μM, 0.1 μM, 0.01 μM, 0.001 μM, 0.0001 μM, 0.00001 μM, 0.000001 μM to the mixtures of the biochemical reaction. As control, dimethyl sulphoxide is added instead of substance in a final concentration of 0.1%.
The reaction is incubated at 30° C. for 2 hours and then the resulting fluorescence is measured in a Tecan Safire-XFLUOR4 instrument, version V4.50 (serial number 12901300283) with the specifications: measurement mode—fluorescence measured from below, excitation wavelength 340 nm, emission wavelength 465 nm, slit width excitation 5 nm, slit width emission 5 nm, gain mode 120, delay 0 μs, number of light flashes per measurement 3, and an integration time of 40 μs.
The activity of the active substances is calculated in relation to these 0% and 100%.

T1 sequence (P49841 whole entry): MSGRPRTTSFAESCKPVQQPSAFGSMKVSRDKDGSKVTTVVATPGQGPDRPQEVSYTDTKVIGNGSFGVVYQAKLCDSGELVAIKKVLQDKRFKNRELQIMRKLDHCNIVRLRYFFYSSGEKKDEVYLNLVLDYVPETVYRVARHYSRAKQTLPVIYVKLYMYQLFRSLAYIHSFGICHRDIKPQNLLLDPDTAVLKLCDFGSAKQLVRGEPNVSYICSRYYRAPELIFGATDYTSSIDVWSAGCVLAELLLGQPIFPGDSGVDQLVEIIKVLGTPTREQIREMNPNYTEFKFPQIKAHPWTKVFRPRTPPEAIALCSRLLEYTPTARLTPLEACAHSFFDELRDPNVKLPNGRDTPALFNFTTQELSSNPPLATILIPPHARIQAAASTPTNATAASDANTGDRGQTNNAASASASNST

SMILES | IC50
Nc1nc(NCCNc2nc(-c3ccc(Cl)cc3Cl)nn3cnnc23)ccc1C(=O)C(F)(F)F [Example 8, 1-{2-Amino-6-[(2-{[6-(2,4-dichlorophenyl)[1,2,4]triazolo[3,4-f][1,2,4]triazin-8-yl]amino}ethyl)-amino]pyridin-3-yl}-2,2,2-trifluoroethanone] | 9.1 nM
N#Cc1sc(NCCNc2nc(-c3ccc(Cl)cc3Cl)cn3ncnc23)nc1N [Example 15, 4-Amino-2-[(2-{[6-(2,4-dichlorophenyl)[1,2,4]triazolo[1,5-a]pyrazin-8-yl]amino}ethyl)amino]-1,3-thiazole-5-carbonitrile] | 3.2 nM
CCC(=O)c1ccc(NC2CCCN(c3nc(-c4ccc(Cl)cc4Cl)nn4cnnc34)C2)nc1N (stereo not shown) [Example 11, 1-[2-Amino-6-({1-[6-(2,4-dichlorophenyl) [1,2,4]triazolo[3,4-f][1,2,4]triazin-8-yl]piperidin-3-yl}-amino)pyridin-3-yl]propan-1-one] | 4.4 nM
Nc1nc(NCCNc2nc(-c3ccc(Cl)cc3Cl)cn3ncnc23)ccc1C(=O)C(F)(F)F [Example 6, 1-{2-Amino-6-[(2-{[6-(2,4-dichlorophenyl)[1,2,4]triazolo[1,5-a]pyrazin-8-yl]amino}ethyl)amino]-pyridin-3-yl}-2,2,2-trifluoroethanone] | 13 nM
